Measured values published in patent US11667643B2, “RIP1K inhibitors” (priority 2020, dated 2023).

Columns and labels:
[1] = test system: L929 cells; test: L929 cell necroptosis assay (TNFa + zVAD, CellTiter-Glo recovery), functional murine RIP1 assay; type: cell-based; conditions: Mus musculus, L929, 18 h, read-out: L929-CTG-recovery, L929, TNFa + zVAD (IC50), L929 cells, zVAD-fmk, TNFa 2 ng/mL, 18 hours, CellTiter-Glo
Procedure, shortened: (§1)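 Human U937 cells (50K/well, 60 uM zVAD-fmk in plating medium) and murine L929 cells (10K/well, medium replaced with 40 uM zVAD-fmk) were pre-incubated with compound 1 h at 37 °C. TNFa was then added at a final 2 ng/mL. Viability by CellTiter-Glo luminescence after 18 h.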

[2] = target: RIPK1 (Homo sapiens (Human), UniProt Q13546); test: biochemical; type: biochemical; conditions: RIPK1 enzyme 31 ng/well, 30° C. for 30 minutes, luminescence; read-out: RIPK1 ADP-Glo Kinase (IC50)
Procedure, shortened: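 ADP-Glo luminescent assay of RIPK1 at 31 ng/well in Tris-HCl pH 7.4 buffer with MgCl2, BSA, 100 μM DTT and 4 mM MnCl2; compounds run in duplicate. Kinase reaction 30 min at 30 °C, then ADP-Glo 40 min and detection reagent 30 min at room temperature; ADP formation read as luminescence.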

[3] = test system: U937 cells; test: U937 cell necroptosis assay (TNFa + zVAD, CellTiter-Glo recovery), functional human RIP1 assay; type: cell-based; conditions: Homo sapiens, U-937, 18 h, read-out: U937 Zvad TNF CTG Recovery, U937, TNFa + zVAD (IC50), U937 cells, zVAD-fmk, TNFa 2 ng/mL, 18 hours, CellTiter-Glo
Procedure, shortened: as §1

RIPK1, sequence (Q13546 whole entry, species assumed): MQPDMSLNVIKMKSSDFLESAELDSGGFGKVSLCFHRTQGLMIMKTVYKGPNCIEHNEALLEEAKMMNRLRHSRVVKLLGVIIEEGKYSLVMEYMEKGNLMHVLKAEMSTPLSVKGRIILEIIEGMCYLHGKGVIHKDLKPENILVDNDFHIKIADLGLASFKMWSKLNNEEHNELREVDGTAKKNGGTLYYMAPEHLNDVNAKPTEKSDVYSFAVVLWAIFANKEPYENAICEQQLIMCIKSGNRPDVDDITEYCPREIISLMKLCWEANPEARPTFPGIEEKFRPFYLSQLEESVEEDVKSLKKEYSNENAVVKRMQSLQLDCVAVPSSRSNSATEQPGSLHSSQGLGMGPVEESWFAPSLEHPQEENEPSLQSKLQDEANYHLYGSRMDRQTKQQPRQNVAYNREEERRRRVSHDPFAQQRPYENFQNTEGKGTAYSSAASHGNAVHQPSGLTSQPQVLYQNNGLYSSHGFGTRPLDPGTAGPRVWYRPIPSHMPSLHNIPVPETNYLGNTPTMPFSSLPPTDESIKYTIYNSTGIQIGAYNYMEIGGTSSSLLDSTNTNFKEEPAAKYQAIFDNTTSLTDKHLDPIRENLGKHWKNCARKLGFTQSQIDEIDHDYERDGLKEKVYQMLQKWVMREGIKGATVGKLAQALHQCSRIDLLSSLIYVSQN

| Compound | IC50 [1] [µM] | IC50 [2] [µM] | IC50 [3] [µM] |
| --- | --- | --- | --- |
| O=C(N[C@H]1COc2ccccc2-n2nnnc21)c1ncn(Cc2c(Cl)cccc2Cl)n1 [Compound I-11, (R)-1-(2,6-Dichlorobenzyl)-N-(4,5-dihydrobenzo[6]tetrazolo[1,5-d][1,4]oxazepin-4-yl)-1H-1,2,4-triazole-3-carboxamide] | 10000 | 0.0178 | 0.0343 |
| O=C(N[C@H]1COc2ccccc2-n2nnnc21)c1ncn(Cc2ccccc2F)n1 [Compound I-21, (R)—N-(4,5-Dihydrobenzo[b]tetrazolo[1,5-d][1,4]oxazepin-4-yl)-1-(2-fluorobenzyl)-1H-1,2,4-triazole-3-carboxamide] | 160 | 0.0567 | 0.0625 |
| O=C(N[C@H]1CSc2ccccc2-n2nnnc21)c1ncn(Cc2ccc(F)cc2)n1 [Compound I-22, (R)—N-(4,5-Dihydrobenzo[b]tetrazolo[1,5-d][1,4]thiazepin-4-yl)-1-(4-fluorobenzyl)-1H-1,2,4-triazole-3-carboxamide] | 2.48 | 0.0321 | 0.002 |
| O=C(N[C@H]1CSc2ccccc2-n2nnnc21)c1cc(Cc2ccccc2)on1 [Compound I-23, (R)-5-Benzyl-N-(4,5-dihydrobenzo[b]tetrazolo[1,5-d][1,4]thiazepin-4-yl)isoxazole-3-carboxamide] | 10000 | 0.0429 | 0.101 |
| O=C(N[C@H]1CSc2ccccc2-n2nnnc21)c1n[nH]c(Cc2ccccc2)n1 [Compound I-24, (R)-5-Benzyl-N-(4,5-dihydrobenzo[b]tetrazolo[1,5-d][1,4]thiazepin-4-yl)-1H-1,2,4-triazole-3-carboxamide] | 2.14 | 0.0272 | 0.0144 |
| O=C(N[C@H]1CS(=O)(=O)c2ccccc2-n2nnnc21)c1cc(Cc2ccccc2)on1 [Compound I-25, (R)-5-Benzyl-N-(6,6-dioxido-4,5-dihydrobenzo[b]tetrazolo[1,5-d][1,4]thiazepin-4-yl)isoxazole-3-carboxamide] | 10000 | 0.51 | 28.6 |
| O=C(N[C@H]1C[S+]([O-])c2ccccc2-n2nnnc21)c1cc(Cc2ccccc2)on1 (stereo partly drawn) [Compound I-26, 5-Benzyl-N-((4R)-6-oxido-4,5-dihydrobenzo[b]tetrazolo[1,5-d][1,4]thiazepin-4-yl)isoxazole-3-carboxamide] | 10000 | 1.37 | 0.176 |
| O=C(N[C@H]1CSc2ccccc2-n2c1noc2=O)c1cc(Cc2ccccc2)on1 [Compound I-28, 5-Benzyl-N-((4R)-1-oxo-4,5-dihydro-1H-benzo[b][1,2,4]oxadiazolo[4,3-d][1,4]thiazepin-4-yl)isoxazole-3-carboxamide] | 10.7 | 0.0679 | 0.0165 |
| O=C(N[C@H]1CSc2ccccc2-n2nnnc21)c1n[nH]c(Cc2ccc(F)cc2)n1 [Compound I-30, (R)—N-(4,5-Dihydrobenzo[&]tetrazolo[1,5-d][1,4]thiazepin-4-yl)-5-(4-fluorobenzyl)-1H-1,2,4-triazole-3-carboxamide] | 10000 | 0.0186 | 0.0679 |
| O=C(N[C@H]1CSc2ccccc2-n2c1noc2=O)c1n[nH]c(Cc2ccc(F)cc2)n1 [Compound I-31, 5-(4-Fluorobenzyl)-N-((4R)-1-oxo-4,5-dihydro-1H-benzo[6][1,2,4]oxadiazolo[4,3-d][1,4]thiazepin-4-yl)-1H-1,2,4-triazole-3-carboxamide] | 5010 | 0.0158 | 0.014 |
| O=C(N[C@H]1CSc2ccccc2-n2c1noc2=O)c1ncn(Cc2ccc(F)cc2)n1 [Compound I-32, 1-(4-Fluorobenzyl)-N-((4R)-1-oxo-4,5-dihydro-1H-benzo[b][1,2,4]oxadiazolo[4,3-d][1,4]thiazepin-4-yl)-1H-1,2,4-triazole-3-carboxamide] | 0.674 | 0.0133 | 0.0016 |
| O=C(N[C@H]1CSc2ccccc2-n2c1noc2=O)c1n[nH]c(Cc2ccccc2)n1 [Compound I-33, 5-Benzyl-N-((4R)-1-oxo-4,5-dihydro-1H-benzo[b][1,2,4]oxadiazolo[4,3-d][1,4]thiazepin-4-yl)-1H-1,2,4-triazole-3-carboxamide] | 5.16 | 0.0125 | 0.0056 |
| O=C(N[C@H]1COc2ccccc2-n2c1noc2=O)c1n[nH]c(Cc2ccccc2)n1 [Compound I-41, 5-Benzyl-N-((4R)-1-oxo-4,5-dihydro-1H-benzo[6][1,2,4]oxadiazolo[4,3-d][1,4]oxazepin-4-yl)-1H-1,2,4-triazole-3-carboxamide] | 10000 | 0.058 | 0.0481 |
| O=C(N[C@H]1COc2ccccc2-n2c1noc2=O)c1ncn(Cc2c(Cl)cccc2Cl)n1 [Compound I-42, 1-(2,6-Dichlorobenzyl)-N-((4R)-1-oxo-4,5-dihydro-1H-benzo[&][1,2,4]oxadiazolo[4,3-d][1,4]oxazepin-4-yl)-1H-1,2,4-triazole-3-carboxamide] | 10000 | 0.0263 | 0.041 |
| O=C(N[C@H]1COc2ccccc2-n2c1noc2=O)c1cc(Cc2ccccc2)on1 [Compound I-43, 5-benzyl-N-((4R)-1-oxo-4,5-dihydro-1H-benzo[b][1,2,4]oxadiazolo[4,3-d][1,4]oxazepin-4-yl)isoxazole-3-carboxamide] | 10000 | 0.11 | 0.205 |
| O=C(N[C@H]1COc2ncccc2-n2c1noc2=O)c1cc(Cc2ccccc2)on1 [Compound I-46, 5-Benzyl-N-((4R)-1-oxo-4,5-dihydro-1H-[1,2,4]oxadiazolo[4,3-d]pyrido[2,3-b][1,4]oxazepin-4-yl)isoxazole-3-carboxamide] | 10000 | 4.41 | 39.4 |
| O=C(N[C@H]1COc2ccccc2-n2c1noc2=O)c1n[nH]c(Cc2ccc(F)cc2F)n1 [Compound I-49, 5-(2,4-Difluorobenzyl)-N-((4R)-1-oxo-4,5-dihydro-1H-benzo[b][1,2,4]oxadiazolo[4,3-d][1,4]oxazepin-4-yl)-1H-1,2,4-triazole-3-carboxamide] | 10000 | 0.347 | 0.717 |
| O=C(N[C@H]1COc2ccccc2-n2c1noc2=O)c1n[nH]c(Cc2ccc(F)cc2)n1 [Compound I-50, 5-(4-Fluorobenzyl)-N-((4R)-1-oxo-4,5-dihydro-1H-benzo[6][1,2,4]oxadiazolo[4,3-d][1,4]oxazepin-4-yl)-1H-1,2,4-triazole-3-carboxamide] | 10000 | 0.109 | 0.246 |
| O=C(N[C@H]1COc2ccccc2-n2c1noc2=O)c1cc(Oc2ccccc2)ccn1 [Compound I-53, N-((4R)-1-Oxo-4,5-dihydro-1H-benzo[6][1,2,4]oxadiazolo[4,3-d][1,4]oxazepin-4-yl)-4-phenoxypicolinamide] | 30.7 | 0.0204 | 0.0462 |
| CC(C)(O)C#Cc1ccc2c(c1)-n1nnnc1[C@@H](NC(=O)c1n[nH]c(Cc3ccccc3)n1)CO2 [Compound I-69, (R)-5-Benzyl-N-(9-(3-hydroxy-3-methylbut-1-yn-1-yl)-4,5-dihydrobenzo[b]tetrazolo[1,5-d][1,4]oxazepin-4-yl)-1H-1,2,4-triazole-3-carboxamide] | 10000 | 0.0601 | 0.787 |
